In one assay the test system is MLL-AF9 BMC. Description: Cell proliferation assay (CellTiter-Glo). In kind it is cell-based. As to the method:
Example 9: Cell proliferation assay. The ability of a compound of the present disclosure to inhibit the growth of cells, such as human leukemia cell, acute myeloid leukemia cell, cells with an MLL fusion, control cells without an MLL fusion, VCaP, LNCaP, 22RV1, DU145, LNCaP-AR, MV4; 11, KOPN-8, ML-2, MOLM-13, RS4; 11, SEM, bone marrow cells (BMCs), MLL-AF9, MLL-AF4, MLL-ENL, MLL-CBP, MLL-GAS7, MLL-AF1p, MLL-AF6, HM-2, E2A-HLF, REH, U937, K562, KG-1, HL-60 and NB4 cells, is tested using a cell viability assay, such as the Promega CellTiter-Glo® Luminescent Cell Viability Assay (Promega Technical Bulletin, 2015, “CellTiter-Glo® Luminescent Cell Viability Assay”: 1-15, herein incorporated by reference in its entirety). Cells are plated at relevant concentrations, for example about 1×10^5-2×10^5 cells per well in a 96-well plate. A compound of the present disclosure is added at a concentration up to about 2 μM with eight, 2-fold serial dilutions for each compound. Cells are incubated at 37° C. for a period of time, for example, 72 hours, then cells in the control wells are counted. Media is changed to restore viable cell numbers to the original concentration, and compounds are re-supplied. Proliferation is measured about 72 hours later using Promega CellTiter-Glo® reagents, as per kit instructions.
On the technique in general: ATP-based viability assays read luminescence as a measure of living cells.

In a further assay the target is T1, Menin MLL 4-43 (Homo sapiens, UniProt O00255).
T1 sequence (O00255 1-610): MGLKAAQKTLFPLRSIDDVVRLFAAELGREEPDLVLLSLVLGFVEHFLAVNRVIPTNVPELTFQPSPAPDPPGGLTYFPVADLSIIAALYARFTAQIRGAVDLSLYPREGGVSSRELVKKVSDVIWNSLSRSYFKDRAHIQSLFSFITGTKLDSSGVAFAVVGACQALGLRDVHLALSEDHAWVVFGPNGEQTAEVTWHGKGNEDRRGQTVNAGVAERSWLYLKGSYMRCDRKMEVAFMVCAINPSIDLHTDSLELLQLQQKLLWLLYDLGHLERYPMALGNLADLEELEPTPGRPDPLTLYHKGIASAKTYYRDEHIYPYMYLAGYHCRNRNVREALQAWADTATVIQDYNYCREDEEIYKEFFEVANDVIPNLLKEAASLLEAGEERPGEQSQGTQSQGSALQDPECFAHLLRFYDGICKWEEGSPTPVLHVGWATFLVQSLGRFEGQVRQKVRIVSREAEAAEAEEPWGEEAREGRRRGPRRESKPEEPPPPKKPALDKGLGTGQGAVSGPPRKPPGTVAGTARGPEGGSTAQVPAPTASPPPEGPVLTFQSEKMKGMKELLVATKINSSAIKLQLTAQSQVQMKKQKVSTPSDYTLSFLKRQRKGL
Nature of the assay: Fluorescence polarization (FP) competition assay of the menin-MLL interaction. In kind it is binding. To be noted: fluorescence polarization assay; read-out: Menin MLL 4-43 IC50. (In fluorescence polarisation assays a small probe gives low polarisation when free and higher when bound to something large.)

The GI50 is the concentration giving 50% growth inhibition. As a reminder, the IC50 is the point on the concentration scale where inhibition reaches its midpoint.

Molecule `Cc1c(CN2CCC(Nc3ncnc4sc(CC(F)(F)F)cc34)CC2)ccc2c1cc(C#N)n2C[C@@H](C)N1CCN(S(C)(=O)=O)CC1` [Compound 9] yielded a GI50 in the assay on MLL-AF9 BMC of 250 to 1000 nM. For the same molecule, at Menin MLL 4-43, the IC50 was > 1000 nM.

In turn, `Cc1c(CN2CCC(Nc3ncnc4sc(CC(F)(F)F)cc34)CC2)ccc2c1cc(C#N)n2C[C@H](C)N1CCN(S(C)(=O)=O)CC1` [Compound 10] gave a GI50 with MLL-AF9 BMC of 10 to 50 nM. Further, the IC50 at Menin MLL 4-43 was < 50 nM.

In the assay on MLL-AF9 BMC, `Cc1c(CN2CCC(Nc3ncnc4sc(CC(F)(F)F)cc34)CC2)ccc2c1cc(C#N)n2CC(C)N1CCN(S(C)(=O)=O)C(C(N)=O)C1` (stereo not shown) [Compound 80] came in with a GI50 of 10 to 50 nM. Moreover, at Menin MLL 4-43, the IC50 was < 50 nM.

Regarding `CNS(=O)(=O)N1CCN([C@@H](C)Cn2c(C#N)cc3c(C)c(CN4CCC(Nc5nc(N)nc6sc(CC(F)(F)F)cc56)CC4)ccc32)CC1` [Compound 132], the GI50 with MLL-AF9 BMC was < 10 nM. The IC50 at Menin MLL 4-43 is < 50 nM.

Take `Cc1c(CN2CCC(Nc3nc(N)nc4sc(CC(F)(F)F)cc34)CC2)ccc2c1cc(C#N)n2C[C@H](C)N1CCN(S(C)(=O)=O)CC1` [Compound 135]: the concentration for 50% growth inhibition (GI50) with MLL-AF9 BMC was < 10 nM. Also, the IC50 on Menin MLL 4-43 was < 50 nM.

Turning to `Cc1nc(NC2CCN(Cc3ccc4c(cc(C#N)n4C[C@H](C)N4CCN(S(C)(=O)=O)CC4)c3C)CC2)c2cc(CC(F)(F)F)sc2n1` [Compound 138], in the assay with MLL-AF9 BMC, the 50% growth inhibitory concentration (GI50) lay within 10 to 50 nM. Also, the IC50 on Menin MLL 4-43 was < 50 nM.

Turning to `CNS(=O)(=O)N1CCN([C@@H](C)Cn2c(C#N)cc3c(C)c(CN4CCC(Nc5nc(C)nc6sc(CC(F)(F)F)cc56)CC4)ccc32)CC1` [Compound 139], the GI50 in the assay with MLL-AF9 BMC lay in the range of 10 to 50 nM. Further, the IC50 on Menin MLL 4-43 was < 50 nM.

Take `CNc1nc(NC2CCN(Cc3ccc4c(cc(C#N)n4C[C@H](C)N4CCN(S(C)(=O)=O)CC4)c3C)CC2)c2cc(CC(F)(F)F)sc2n1` [Compound 151]: the GI50 in the assay with MLL-AF9 BMC was < 10 nM.

Take `Cc1c(CN2CCC(Nc3ncnc4sc(CC(F)(F)F)cc34)CC2)ccc2c1cc(C#N)n2C[C@H](C)N1CCN(S(C)(=O)=O)[C@H](C(N)=O)C1` [Compound 163]: the GI50 with MLL-AF9 BMC is < 10 nM. In addition, at Menin MLL 4-43, the IC50 was < 50 nM.

The molecule `CCc1nc(NC2CCN(Cc3ccc4c(cc(C#N)n4C[C@H](C)N4CCN(S(C)(=O)=O)CC4)c3C)CC2)c2cc(CC(F)(F)F)sc2n1` [Compound 171] gave a GI50 with MLL-AF9 BMC of 10 to 50 nM. Also, the IC50 at Menin MLL 4-43 lay within 50 to 250 nM.

As for `C[C@@H](Cn1c(C#N)cc2cc(CN3CCC(Nc4nc(N)nc5sc(CC(F)(F)F)cc45)CC3)c(O)cc21)N1CCN(S(C)(=O)=O)CC1` [Compound 172], in the assay with MLL-AF9 BMC, the GI50 is < 10 nM. The IC50 on Menin MLL 4-43 was < 50 nM.

In the case of `CCNc1nc(NC2CCN(Cc3ccc4c(cc(C#N)n4C[C@H](C)N4CCN(S(C)(=O)=O)CC4)c3C)CC2)c2cc(CC(F)(F)F)sc2n1` [Compound 174], in the assay on MLL-AF9 BMC, the GI50 fell in the range of 10 to 50 nM. Also, on Menin MLL 4-43, the IC50 lay within 50 to 250 nM.

Take `Cc1c(CN2CCC(Nc3nc(N)nc4sc(CC(F)(F)F)cc34)CC2)ccc2c1cc(C#N)n2C[C@H](C)N1CCN(CC(N)=O)CC1` [Compound 175]: the GI50 in the assay with MLL-AF9 BMC is 10 to 50 nM. Also, the IC50 on Menin MLL 4-43 was < 50 nM.

Take `CNC(=O)CN1CCN([C@@H](C)Cn2c(C#N)cc3c(C)c(CN4CCC(Nc5nc(N)nc6sc(CC(F)(F)F)cc56)CC4)ccc32)CC1` [Compound 176]: in the assay with MLL-AF9 BMC, the GI50 lay within 10 to 50 nM. Besides, the IC50 on Menin MLL 4-43 is < 50 nM.

Turning to `CNS(=O)(=O)N1CCN([C@@H](C)Cn2c(C#N)cc3cc(CN4CCC(Nc5nc(N)nc6sc(CC(F)(F)F)cc56)CC4)c(O)cc32)CC1` [Compound 177], the GI50 in the assay on MLL-AF9 BMC is < 10 nM. The 50% inhibitory concentration (IC50) on Menin MLL 4-43 is < 50 nM.

Consider `Cc1c(CN2CCC(Nc3nc(N)nc4sc(CC(F)(F)F)cc34)CC2)ccc2c1cc(C#N)n2C[C@H](C)N1CCN(CC(=O)N(C)C)CC1` [Compound 181], for which the GI50 in the assay with MLL-AF9 BMC lay in the range of 10 to 50 nM. In addition, on Menin MLL 4-43, the IC50 was < 50 nM.

Turning to `COc1nc(NC2CCN(Cc3ccc4c(cc(C#N)n4C[C@H](C)N4CCN(S(C)(=O)=O)CC4)c3C)CC2)c2cc(CC(F)(F)F)sc2n1` [Compound 183], the GI50 in the assay on MLL-AF9 BMC was < 10 nM. For the same molecule, the IC50 at Menin MLL 4-43 is < 50 nM.

For the molecule `CNc1nc(NC2CCN(Cc3ccc4c(cc(C#N)n4C[C@H](C)N4CCC(C)(C#N)CC4)c3C)CC2)c2cc(CC(F)(F)F)sc2n1` [Compound 199], the GI50 with MLL-AF9 BMC was < 10 nM. Besides, the IC50 on Menin MLL 4-43 was in the range of 50 to 250 nM.

Take `CNc1nc(NC2CCN(Cc3ccc4c(cc(C#N)n4C[C@H](C)N4CCS(=O)(=O)CC4)c3C)CC2)c2cc(CC(F)(F)F)sc2n1` [Compound 203]: the concentration for 50% growth inhibition (GI50) in the assay on MLL-AF9 BMC was < 10 nM. For the same molecule, the IC50 at Menin MLL 4-43 is < 50 nM.

On to `CNS(=O)(=O)N1CCN([C@@H](C)Cn2c(C#N)cc3c(C)c(CN4CCC(Nc5nc(OC)nc6sc(CC(F)(F)F)cc56)CC4)ccc32)CC1` [Compound 205], for which the GI50 with MLL-AF9 BMC was < 10 nM. In addition, the IC50 on Menin MLL 4-43 is < 50 nM.

Turning to `CNc1nc(NC2CCN(Cc3ccc4c(cc(C#N)n4C[C@H](C)N4CCC(C)(O)CC4)c3C)CC2)c2cc(CC(F)(F)F)sc2n1` [Compound 207], in the assay on MLL-AF9 BMC, the GI50 was < 10 nM. In addition, the 50% inhibitory concentration (IC50) at Menin MLL 4-43 was < 50 nM.

Consider `CNS(=O)(=O)C1CCN([C@@H](C)Cn2c(C#N)cc3c(C)c(CN4CCC(Nc5nc(OC)nc6sc(CC(F)(F)F)cc56)CC4)ccc32)CC1` [Compound 214], for which the GI50 in the assay with MLL-AF9 BMC was < 10 nM. Also, the 50% inhibitory concentration (IC50) on Menin MLL 4-43 is < 50 nM.

In the case of `CNC(=O)C1CN([C@@H](C)Cn2c(C#N)cc3c(C)c(CN4CCC(Nc5nc(NC)nc6sc(CC(F)(F)F)cc56)CC4)ccc32)CCO1` (stereo partly shown) [Compound 217], the GI50 in the assay with MLL-AF9 BMC was in the range of 10 to 50 nM. Moreover, on Menin MLL 4-43, the IC50 is < 50 nM.

With `CNc1nc(NC2CCN(Cc3ccc4c(cc(C#N)n4CCN4CCC(S(C)(=O)=O)CC4)c3C)CC2)c2cc(CC(F)(F)F)sc2n1` [Compound 1020], the IC50 on Menin MLL 4-43 was < 50 nM.

In the case of `Cc1nc(NC2CCN(Cc3ccc4c(cc(C#N)n4CCN4CCC(S(C)(=O)=O)CC4)c3C)CC2)c2cc(CC(F)(F)F)sc2n1` [Compound 1021], the IC50 at Menin MLL 4-43 is < 50 nM.

On to `CNc1nc(NC2CCN(Cc3ccc4c(cc(C#N)n4CCN4CCN(S(C)(=O)=O)CC4)c3C)CC2)c2cc(CC(F)(F)F)sc2n1` [Compound 1022], for which, at Menin MLL 4-43, the half-maximal inhibitory concentration (IC50) was < 50 nM.

`Cc1nc(NC2CCN(Cc3ccc4c(cc(C#N)n4CCN4CCN(S(C)(=O)=O)CC4)c3C)CC2)c2cc(CC(F)(F)F)sc2n1` [Compound 1023]: on Menin MLL 4-43, the IC50 was 50 to 250 nM.

On to `CNc1nc(NC2CCN(Cc3ccc4c(cc(C#N)n4CCN4CCN(C)C(=O)C4)c3C)CC2)c2cc(CC(F)(F)F)sc2n1` [Compound 1024], for which the IC50 on Menin MLL 4-43 was < 50 nM.

On to `CNc1nc(NC2CCN(Cc3ccc4c(cc(C#N)n4CCN4CCNC(=O)C4)c3C)CC2)c2cc(CC(F)(F)F)sc2n1` [Compound 1025], for which the IC50 on Menin MLL 4-43 was < 50 nM.

`Cc1c(CN2CCC(Nc3ncnc4sc(CC(F)(F)F)cc34)CC2)ccc2c1cc(C#N)n2CCNC(=O)COCCOCCNC(=O)OC(C)(C)C` [Compound 1027]: the IC50 at Menin MLL 4-43 was < 50 nM.

The record behind these values is patent US11673898B2, “Substituted inhibitors of menin-MLL and methods of use” (Kura Oncology, Inc., priority 2016, dated 2023).
